These results are taken from US20240239772A1, “PROTEASE INHIBITORS AND METHODS OF USE” (The Cleveland Clinic Foundation, priority 2021, published 2024).

One test concerns the target SARS-CoV-2 3CLpro (Severe acute respiratory syndrome coronavirus 2 (2019-nCoV) (SARS-CoV-2), UniProt P0DTD1). Description: biochemical. It is filed as biochemical.
Settings: not given
`CC(c1cc(F)cc(Cl)c1)N(C(=O)Cn1nnc2ccccc21)c1ccc(-c2c[nH]cn2)cc1` (racemic) [Compound 73, 2-(benzotriazol-1-yl)-N-[4-(1H-imidazol-4-yl)phenyl]-N-[rac-(1R)-1-(3-chloro-5-fluoro-phenyl)ethyl]acetamide] returned an IC50 of 100 nM.

The same test, now with this note: read-out: SARS-CoV-2 IC50.
As for `O=C(Cn1nnc2ccccc21)N(Cc1ccsc1)c1ccc(-c2ccc[nH]c2=O)cc1` [Compound 17, 2-(1H-Benzo[d][1,2,3]triazol-1-yl)-N-(4-(2-oxo-1,2-dihydropyridin-3-yl)phenyl)-N-(thiophen-3-ylmethyl)acetamide], the IC50 was 920 ± 210 nM.
For the compound `Cn1cc(-c2ccc(N(Cc3ccsc3)C(=O)Cn3nnc4ccccc43)cc2)cn1` [Compound 18, 2-(Benzotriazol-1-yl)-N-[4-(1-methylpyrazol-4-yl)phenyl]-N-(3-thienylmethyl)acetamide], the IC50 was determined as 20400 ± 420 nM.
On the same count and under the same terms, with `Cn1cnc(-c2ccc(N(Cc3ccsc3)C(=O)Cn3nnc4ccccc43)cc2)c1` [Compound 20, 2-(Benzotriazol-1-yl)-N-[4-(1-methylimidazol-4-yl)phenyl]-N-(3-thienylmethyl)acetamide] the figure was 9550 ± 990 nM.
On the same count and under the same terms, then `CC(C)CCN(C(=O)Cn1nnc2ccccc21)c1ccc(-c2cccnc2)cc1` [Compound 22, 2-(1H-Benzo[d][1,2,3]triazol-1-yl)-N-isopentyl-N-(4-(pyridin-3-yl)phenyl)acetamide], with 4620 ± 130 nM; and `O=C(Cn1nnc2ccccc21)N(CC1CCC1)c1ccc(-c2cccnc2)cc1` [Compound 24, 2-(1H-Benzo[d][1,2,3]triazol-1-yl)-N-(cyclobutylmethyl)-N-(4-(pyridin-3-yl)phenyl)acetamide], with 830 ± 30 nM.
Still for that read-out and setting: with `O=C(Cn1nnc2ccccc21)N(CC1CCCC1)c1ccc(-c2cccnc2)cc1` [Compound 25, 2-(1H-Benzo[d][1,2,3]triazol-1-yl)-N-(cyclopentylmethyl)-N-(4-(pyridin-3-yl)phenyl)acetamide] the figure was 1160 ± 190 nM.
Regarding `O=C(Cn1nnc2ccccc21)N(Cc1cscn1)c1ccc(-c2cccnc2)cc1` [Compound 27, 2-(Benzotriazol-1-yl)-N-[4-(3-pyridyl)phenyl]-N-(thiazol-4-ylmethyl)acetamide], the 50% inhibitory concentration (IC50) is 1590 ± 440 nM.
Same read-out and setting: with `O=C(Cn1nnc2ccccc21)N(Cc1ccc(F)c(Cl)c1)c1ccc(-c2cccnc2)cc1` [Compound 29, 2-(Benzotriazol-1-yl)-N-[(3-chloro-4-fluoro-phenyl)methyl]-N-[4-(3-pyridyl)phenyl]acetamide] the figure was 8530 ± 1820 nM.
In the case of `O=C(Cn1nnc2ccccc21)N(Cc1cc(Cl)cc(Cl)c1)c1ccc(-c2cccnc2)cc1` [Compound 32, 2-(Benzotriazol-1-yl)-N-[(3,5-dichlorophenyl)methyl]-N-[4-(3-pyridyl)phenyl]acetamide], the IC50 was found to be 176 ± 25 nM.
Same read-out and setting: with `Cc1cc(Cl)cc(CN(C(=O)Cn2nnc3ccccc32)c2ccc(-c3cccnc3)cc2)c1` [Compound 33, 2-(Benzotriazol-1-yl)-N-[(3-chloro-5-methyl-phenyl)methyl]-N-[4-(3-pyridyl)phenyl]acetamide] the figure was 312 ± 73 nM.
With `O=C(Cn1nnc2ccccc21)N(Cc1cncc(Cl)c1)c1ccc(-c2cccnc2)cc1` [Compound 34, 2-(Benzotriazol-1-yl)-N-[(5-chloro-3-pyridyl)methyl]-N-[4-(3-pyridyl)phenyl]acetamide], the IC50 was 540 ± 70 nM.
On the same count and under the same terms, with `O=C(Cn1nnc2ccccc21)N(CC1CCCC1)c1ccc(-c2ccc[nH]c2=O)cc1` [Compound 68, 2-(1H-benzo[d][1,2,3]triazol-1-yl)-N-(cyclopentylmethyl)-N-(4-(2-oxo-1,2-dihydropyridin-3-yl)phenyl)acetamide] the figure was 1300 nM; with `Cc1[nH]ncc1-c1ccc(N(Cc2cccc(Cl)c2)C(=O)Cn2nnc3ccccc32)cc1` [Compound 69, 2-(1H-benzo[d][1,2,3]triazol-1-yl)-N-(3-chlorobenzyl)-N-(4-(5-methyl-1H-pyrazol-4-yl)phenyl)acetamide], 380 nM.
The same measure, in the same setting: then `O=C(Cn1nnc2ccccc21)N(CC1COC1)c1ccc(-c2cccnc2)cc1` [Compound 70, 2-(1H-benzo[d][1,2,3]triazol-1-yl)-N-(oxetan-3-ylmethyl)-N-(4-(pyridin-3-yl)phenyl)acetamide], with 32000 nM.
On the same count and under the same terms, then `Cc1ccc(CN(C(=O)Cn2nnc3ccccc32)c2ccc(-c3cccnc3)cc2)cc1Cl` [Compound 71, 2-(1H-benzo[d][1,2,3]triazol-1-yl)-N-(3-chloro-4-methylbenzyl)-N-(4-(pyridin-3-yl)phenyl)acetamide], with > 50000 nM; and `O=C(Cn1nnc2ccccc21)N(Cc1cc(F)cc(Cl)c1)c1ccc(-c2c[nH]cn2)cc1` [Compound 72, 2-(benzotriazol-1-yl)-N-[(3-chloro-5-fluoro-phenyl)methyl]-N-[4-(1H-imidazol-4-yl)phenyl]acetamide], with 52 nM.
Turning to `Cc1[nH]cnc1-c1ccc(N(Cc2cc(F)cc(Cl)c2)C(=O)Cn2nnc3ccccc32)cc1` [Compound 74, 2-(benzotriazol-1-yl)-N-[(3-chloro-5-fluoro-phenyl)methyl]-N-[4-(5-methyl-1H-imidazol-4-yl)phenyl]acetamide], the IC50 amounted to 350 nM.
Consider `O=C(Cn1nnc2ccccc21)N(Cc1cc(F)cc(Cl)c1)c1ccc(-c2c[nH]cn2)cn1` [Compound 75, 2-(benzotriazol-1-yl)-N-[(3-chloro-5-fluoro-phenyl)methyl]-N-[5-(1H-imidazol-4-yl)-2-pyridyl]acetamide], for which the IC50 turned out to be 62 nM.
Turning to `O=C(Cn1nnc2ccccc21)N(Cc1cccc(C(F)(F)F)c1)c1ccc(-c2c[nH]cn2)cc1` [Compound 76, 2-(benzotriazol-1-yl)-N-[4-(1H-imidazol-4-yl)phenyl]-N-[[3-(trifluoromethyl)phenyl]methyl]acetamide], the IC50 was 270 nM.
For `N#Cc1cccc(CN(C(=O)Cn2nnc3ccccc32)c2ccc(-c3c[nH]cn3)cc2)c1` [Compound 77, 2-(benzotriazol-1-yl)-N-[(3-cyanophenyl)methyl]-N-[4-(1H-imidazol-4-yl)phenyl]acetamide], the IC50 was 640 nM.
Turning to `O=C(Cn1nnc2ccccc21)N(Cc1cc(F)cc(F)c1)c1ccc(-c2c[nH]cn2)cc1` [Compound 78, 2-(benzotriazol-1-yl)-N-[(3,5-difluorophenyl)methyl]-N-[4-(1H-imidazol-4-yl)phenyl]acetamide], the IC50 turned out to be 95 nM.
On to `O=C(Cn1nnc2ccccc21)N(CC1CCC1)c1ccc(-c2c[nH]cn2)cc1` [Compound 79, 2-(benzotriazol-1-yl)-N-(cyclobutylmethyl)-N-[4-(1H-imidazol-4-yl)phenyl]acetamide], for which the IC50 is 1100 nM.
The same measure, in the same setting: then `O=C(Cn1nnc2ccccc21)N(Cc1cc(F)ccc1F)c1ccc(-c2c[nH]cn2)cc1` [Compound 80, 2-(benzotriazol-1-yl)-N-[(2,5-difluorophenyl)methyl]-N-[4-(1H-imidazol-4-yl)phenyl]acetamide], with 220 nM.
The same measure, in the same setting: then `O=C(Cn1nnc2ccccc21)N(Cc1cccc(F)c1F)c1ccc(-c2c[nH]cn2)cc1` [Compound 81, 2-(benzotriazol-1-yl)-N-[(2,3-difluorophenyl)methyl]-N-[4-(1H-imidazol-4-yl)phenyl]acetamide], with 400 nM; and `O=C(Cn1nnc2ccccc21)N(Cc1cccc(F)c1)c1ccc(-c2c[nH]cn2)cc1` [Compound 82, 2-(benzotriazol-1-yl)-N-[(3-fluorophenyl)methyl]-N-[4-(1H-imidazol-4-yl)phenyl]acetamide], with 360 nM.
Same read-out and setting: with `O=C(Cn1nnc2ccccc21)N(Cc1cc(Cl)ccc1F)c1ccc(-c2c[nH]cn2)cc1` [Compound 83, 2-(benzotriazol-1-yl)-N-[(5-chloro-2-fluoro-phenyl)methyl]-N-[4-(1H-imidazol-4-yl)phenyl]acetamide] the figure was 76 nM.
`O=C(Cn1nnc2ccccc21)N(Cc1cccc(Cl)c1F)c1ccc(-c2c[nH]cn2)cc1` [Compound 84, 2-(benzotriazol-1-yl)-N-[(3-chloro-2-fluoro-phenyl)methyl]-N-[4-(1H-imidazol-4-yl)phenyl]acetamide]: the IC50 was 230 nM.
`O=C(Cn1nnc2ccccc21)N(Cc1cncc(Cl)c1)c1ccc(-c2c[nH]cn2)cc1` [Compound 85, 2-(benzotriazol-1-yl)-N-[(5-chloro-3-pyridyl)methyl]-N-[4-(1H-imidazol-4-yl)phenyl]acetamide]: the half-inhibitory concentration (IC50) is 89 nM.
Still for that read-out and setting: then `COc1ccc(Cl)cc1CN(C(=O)Cn1nnc2ccccc21)c1ccc(-c2c[nH]cn2)cc1` [Compound 86, 2-(benzotriazol-1-yl)-N-[(5-chloro-2-methoxy-phenyl)methyl]-N-[4-(1H-imidazol-4-yl)phenyl]acetamide], with 180 nM; and `COc1cc(Cl)cc(CN(C(=O)Cn2nnc3ccccc32)c2ccc(-c3c[nH]cn3)cc2)c1` [Compound 87, 2-(benzotriazol-1-yl)-N-[(3-chloro-5-methoxy-phenyl)methyl]-N-[4-(1H-imidazol-4-yl)phenyl]acetamide], with 57 nM.
Still for that read-out and setting: then `CC(c1cc(F)cc(F)c1)N(C(=O)Cn1nnc2ccccc21)c1ccc(-c2c[nH]cn2)cc1` (centres unmarked) [Compound 88, 2-(benzotriazol-1-yl)-N-[1-(3,5-difluorophenyl)ethyl]-N-[4-(1H-imidazol-4-yl)phenyl]acetamide], with 160 nM; and `CC(C)CN(C(=O)Cn1nnc2ccccc21)c1ccc(-c2c[nH]cn2)cc1` [Compound 89, 2-(benzotriazol-1-yl)-N-[4-(1H-imidazol-4-yl)phenyl]-N-isobutyl-acetamide], with 680 nM.
Still for that read-out and setting: then `O=C(Cn1nnc2ccccc21)N(Cc1cc(F)cc(F)c1)c1ccc(C2CCNCC2)cc1` [Compound 90, 2-(benzotriazol-1-yl)-N-[(3,5-difluorophenyl)methyl]-N-[4-(4-piperidyl)phenyl]acetamide], with 1700 nM; and `O=C(Cn1nnc2ccccc21)N(Cc1cc(F)cc(F)c1)c1ccc(C2=CCNC2)cc1` [Compound 91, 2-(benzotriazol-1-yl)-N-[(3,5-difluorophenyl)methyl]-N-[4-(2,5-dihydro-1H-pyrrol-3-yl)phenyl]acetamide], with 130 nM.
